Reference: patent US20120165319A1, “INHIBITORS OF INTERLEUKIN-1 BETA CONVERTING ENZYME” (VERTEX PHARMACEUTICALS INCORPORATED, priority 1995, published 2012)
Where two headings read alike, the source gives them in different places.

Experiments:
[1] = system: IL-1β, human peripheral blood mononuclear cells (PBMC); assay: PBMC cell assay: IL-1β assay with human PBMC or enriched adherent mononuclear cells, LPS-stimulated; assay type: cell-based; settings: Homo sapiens, PBMC
Method in brief: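 Buffy-coat human PBMC at 6×10^6 cells/ml, or adherent monocytes enriched by 1 h adherence (2.5−3.0×10^5 cells/well), are given 5–6 compound dilutions bracketing the ICE Ki (final DMSO 0.1%) plus LPS at a final 5 ng/ml. They are incubated 16–18 hr at 37 °C, 5% CO2, and supernatant mature IL-1β is measured by ELISA, with duplicate cultures and duplicate ELISAs.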

[2] = Pharmacokinetic studies in the mouse (i.v. clearance, plasma levels); assay type: in vivo; settings: CD-1, plasma, iv, mouse, 25 mg/kg
Procedure: Pharmacokinetic Studies in the Mouse
Sample Preparation and Dosing
Compounds were dissolved in sterile TRIS solution (0.02M or 0.05M) at a concentration of 2.5 mg/ml. Where necessary to ensure a complete solution, the sample was first dissolved in a minimum of dimethylacetamide (maximum of 5% of total solution volume) then diluted with the TRIS solution.
The drug solution was administered to CD-1 mice (Charles River Laboratories—26-31 g) via the tail vein at a dose volume of 10 ml/kg giving a drug dose of 25 mg/kg.
Mice were dosed in groups of 5 for each timepoint (generally from 2 minutes to 2 hours) then at the appropriate time the animals were anaesthetised with halothane and the blood collected into individual heparinized tubes by jugular severance. The blood samples were cooled to 0° C. then the plasma separated and stored at −20° C. until assayed.
Drug concentration in the plasma samples were determined by HPLC analysis with UV or MS (ESP) detection. Reverse phase chromatography was employed using a variety of bonded phases from C1 to C18 with eluents composed of aqueous buffer/acetonitrile mixtures run under isocratic conditions.
Quantitation was by external standard methods with calibration curves constructed by spiking plasma with drug solutions to give concentrations in the range of 0.5 to 50 μg/ml.
Prior to analysis the plasma samples were deproteinated by the addition of acetonitrile, methanol, trichloroacetic acid or perchloric acid followed by centrifugation at 10,000 g for 10 minutes. Sample volumes of 20 μl to 50 μl were injected for analysis.
The drug was dissolved in sterile 0.02M Tris to give a 2.5 mg/ml solution which was administered to […] of 5 male CD-1 mice via the tail vein at a dose of 25 mg/kg. At each of the following timepoints: 2, 5, 10, 15, 20, 30, 45, 60, 90 and 120 minutes a group of animals was anaesthetised and the blood collected into heparinized tubes. After separation the plasma was stored at −20° C. until assayed.
Aliquots of plasma (150 μl) were treated with 5% perchloric acid (5 μl) then mixed by vortexing and allowed to stand for 90 minutes prior to centrifugation. The resulting supernatant was separated and 20 μl was injected for HPLC analysis.
Aliquots of plasma (100 μl) were diluted with acetonitrile (100 μl) then mixed by vortexing for 20 seconds before centrifugation for 10 minutes. The resulting supernatant was separated and 20 μl was injected for HPLC analysis.

[3] = biological target: T1, ICE (Homo sapiens, UniProt P29466); assay: Enzyme assay with UV-visible substrate (visible ICE assay, Succinyl-Tyr-Val-Ala-Asp-pNitroanilide); assay type: biochemical
T1 sequence (P29466 120-297 limits assumed): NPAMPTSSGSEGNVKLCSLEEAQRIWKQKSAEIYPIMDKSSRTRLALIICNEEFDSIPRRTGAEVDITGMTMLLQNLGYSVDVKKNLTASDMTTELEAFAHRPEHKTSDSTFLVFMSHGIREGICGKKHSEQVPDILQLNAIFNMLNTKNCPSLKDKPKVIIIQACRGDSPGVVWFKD
T1 sequence (P29466 317-404 limits assumed): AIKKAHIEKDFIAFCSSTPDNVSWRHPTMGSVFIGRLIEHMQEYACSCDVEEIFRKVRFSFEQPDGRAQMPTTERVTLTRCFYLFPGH
Method in brief: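 Read-out is the rate of pNA chromophore release (mOD/min, linear fit) monitored at 405-603 nm over 20 min at 37° C. Substrate was succinyl-Tyr-Val-Ala-Asp-pNitroanilide, added after a 15 min room-temperature preincubation of ICE with inhibitor.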

[4] = In vivo rat clearance assay; settings: plasma, iv, 10-20 mg/kg
Procedure: In Vivo Rat Clearance Assay
Cannulations of the jugular and carotid vessels of rats under anesthesia were performed one day prior to the pharmacokinetic study. M. J. Free, R. A. Jaffee; ‘Cannulation techniques for the collection blood and other bodily fluids’; in: Animal Models; p. 480-495; N. J. Alexander, Ed.; Academic Press; (1978). Drug (10 mg/mL) was administered via the jugular vein in a vehicle usually consisting of: propylene glycol/saline, containing 100 mM sodium bicarbonate in a 1:1 ratio. Animals were dosed with 10-20 mg drug/kg and blood samples were drawn at 0, 2, 5, 7, 10, 15, 20, 30, 60, and 90 minutes from an indwelling carotid catheter. The blood was centrifuged to plasma and stored at −20° C. until analysis. Pharmacokinetic analysis of data was performed by non-linear regression using standard software such as RStrip (MicroMath Software, UT) and/or Pcnonlin (SCI Software, NC) to obtain clearance values.
Rat plasma was extracted with an equal volume of acetonitrile (containing 0.1% TFA). Samples were then centrifuged at approximately 1,000×g and the supernatant analyzed by gradient HPLC. A typical assay procedure is described below.
A standard curve was run at 20, 10, 5, 2 and 1 μg/mL concentrations.

[5] = system: IL-1β production, LPS-challenged mice; assay: In vivo acute assay for efficacy as anti-inflammatory agent: LPS-induced IL-1β production in mice; parameters: species or system mouse; settings: Mus musculus, po, LPS challenged mice, compound PO, 50 mg/kg, read-out: percent inhibition of IL-1β production
Method in brief: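 CD1 mice (n=6) were challenged with LPS 20 mg/kg IP and given compound IP in olive oil:DMSO:ethanol (90:5:5) 1 h after LPS, or at the time of challenge for some analogs. Blood was taken 7 h after LPS and serum IL-1β was measured by ELISA. Oral gavage at 50 mg/kg was also tested.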

[6] = system: IL-1β, human whole blood; assay: Whole blood assay for IL-1β production; assay type: cell-based; settings: Homo sapiens, Table 17; read-out: Whole human blood IC50
Method in brief: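 Human whole blood collected on Na2EDTA was treated with serially diluted compound in saline and then stimulated with LPS at 5.0 ng/ml final, for 16-18 h at 30 °C, in duplicate or triplicate. Plasma IL-1β was measured by ELISA at 1:200 dilution.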

[7] = * = values obtained upon reassay
[8] = 0 h, administered 0 h relative to time of LPS challenge
[9] = 2 h, administered −2 h relative to time of LPS challenge

Compound	clearance [2] [L/h/kg]	Ki ([3]; Table 5) [µM]	melting point	IC50 [1, 7] [µM]	IC50 ([1]; Table 17) [µM]	further results
O=C(O)C[C@H](NC(=O)[C@@H]1CCCN2C(=O)CC[C@H](NC(=O)c3ccccc3)C(=O)N12)C(=O)CSc1nccs1 [Compound 510a, [3S(1S,9S)]3-(9-Benzoylamino-6,10-dioxo-1,2,3,4,7,8,9,10-octahydro-6H-pyridazino[1,2-a][1,2]diazepine-1-carboxamido)-5-(2-mercaptothiazole)-4-oxopentanoic acid]					0.2	clearance ([2]; Table 17): 16 L/h/kg; Ki ([3]; Table 17): 0.065 µM
CC(=O)N1C[C@H](NC(=O)c2ccccc2)C(=O)N(CC(=O)N[C@H](C=O)CC(=O)O)c2ccccc21 [Compound 605d, (3S)-3-[(3S)-2-Oxo-3-benzoylamino-5-acetyl-2,3,4,5-tetrahydro-1H-1,5-benzodiazepin-1-acetylamino]-4-oxo-butyric acid]	1.98	0.095		5.1		
CS(=O)(=O)N[C@H]1CCC(=O)N2CCC[C@@H](C(=O)N[C@@H](CC(=O)O)C(=O)c3nc4cc(Cl)cc(Cl)c4o3)N2C1=O [Compound 223b, [3S(1S,9S)]-4-(5,7-Dichlorobenzoxazol-2-yl)-3-(6,10-dioxo-9-methylsulphonylamino-1,2,3,4,7,8,9,10-octahydro-6H-pyridazino[1,2-a][1,2]diazepine-1-carboxamido)-4-oxobutanoic acid]	> 6	0.099		5		
CC(=O)Nc1ccc(C(=O)N[C@H]2CCC(=O)N3CCC[C@@H](C(=O)N[C@H](C=O)CC(=O)O)N3C2=O)cc1 [Compound 418]	0.78	0.0022				clearance [4]: 0.354 L/h/kg; inhibition at 50 mg/kg [5, 8]: 52%; inhibition at 50 mg/kg ([5]; 1 h, administered +1 h relative to time of LPS challenge): 64%; inhibition at 50 mg/kg [5, 9]: 25%
O=C[C@H](CC(=O)O)NC(=O)[C@@H]1CCCN2C(=O)CCN(NS(=O)(=O)c3ccc4ccccc4c3)C(=O)N12 [Compound 265a, [3S(4 S)]3-[6,10-Dioxo-7-(2-naphthalenesulfonyl)amino-1,2,3,4,7,8,9,10-octahydro-6H-pyridazino[1,2-a][1,2,4]triazepine-4-carboxamido]-4-oxobutanoic acid]			126 to 130 °C (dec.)		25	Ki ([3]; Table 17): 2.6 µM
CCOC1OC(=O)C[C@@H]1NC(=O)[C@@H]1CCCN2C(=O)CC[C@H](NC(=O)c3cc4ccccc4[nH]3)C(=O)N12 (stereo partly drawn) [Compound 550o, [1S,9S(2RS,3S)]6,10-Dioxo-N-(2-ethoxy-5-oxotetrahydrofuran-3-yl)-9-(2-indoloylamino)-1,2,3,4,7,8,9,10-octahydro-6H-pyridazino[1,2-a][1,2]diazepine-1-carboxamide]			155 to 170 °C		0.45	IC50 [6]: 3 µM; inhibition at 50 mg/kg [5, 8]: 64%; inhibition at 50 mg/kg [5, 9]: 19%
CC(=O)Nc1ccc(C(=O)N[C@H]2CCC(=O)N3CCC[C@@H](C(=O)N[C@H]4CC(=O)OC4OCc4ccccc4)N3C2=O)cc1 (stereo partly drawn) [Compound 213x, [1S,9S(2RS,3S)]9-[4-(Acetylamino)benzoylamino]-N-(2-benzyloxy-5-oxo-tetrahydrofuran-3-yl)-6,10-dioxo-1,2,3,4,7,8,9,10-octahydro-6H-pyridazino[1,2-a][1,2]diazepine-1-carboximide]			150 to 170 °C		4.5	IC50 [6]: 2.5 µM; inhibition at 50 mg/kg [5, 8]: 78%; inhibition at 50 mg/kg [5, 9]: 0%
O=C(O)C[C@H](NC(=O)[C@@H]1CCCN2C(=O)CC[C@H](NC(=O)c3ccccc3)C(=O)N12)C(=O)Cn1cnccc1=O [Compound 510d, [3S(1S,9S)]3-[6,10-Dioxo-1,2,3,4,7,8,9,10-octahydro-9-(phenycarbonylamino)-6H-pyridazino[1,2-a][1,2]diazepine-1-carboxamido]-4-oxo-5-{2-[4(3H)-pyrimidone]}pentanoic acid]			140 to 180 °C		> 20	Ki ([3]; Table 17): 2.3 µM

More lines, main results first:

clearance [2] [L/h/kg]	Ki ([3]; Table 5) [µM]	melting point	Compound	IC50 [1, 7] [µM]	IC50 ([1]; Table 17) [µM]	further results
4.26	0.11		COC(=O)N1C[C@H](NC(=O)c2ccccc2)C(=O)N(CC(=O)N[C@H](C=O)CC(=O)O)c2ccccc21 [Compound 605j, (3S)-3-[(3S)-2-Oxo-3-benzoylamino-5-methoxycarbonyl-2,3,4,5-tetrahydro-1H-1,5-benzodiazepin-1-acetylamino]-4-oxo-butyric acid]	8.75		
5.82	0.045		O=C[C@H](CC(=O)O)NC(=O)CN1C(=O)[C@@H](NC(=O)c2ccccc2)CN(C(=O)Cc2ccccc2)c2ccccc21 [Compound 605b, (3S)-3-[(3S)-2-Oxo-3-benzoylamino-5-phenylacetyl-2,3,4,5-tetrahydro-1H-1,5-benzodiazepin-1-acetylamino]-4-oxo-butyric acid]	10		
		116 to 120 °C (dec.)	O=C(O)CC(NC(=O)Cn1c(Cc2ccccc2)ccc(NC(=O)CCc2ccccc2)c1=O)C(=O)COC(=O)c1c(Cl)cccc1Cl (centres unmarked) [Compound 57b, N-2-(6-Benzyl-1,2-dihydro-2-oxo-3-(3-phenylpropionyl)amino-1-pyridyl)acetyl-3-amino-5-(2,6-dichloro-benzoyloxy)-4-oxo-pentanoic acid]			
2.22	0.615		O=C[C@H](CC(=O)O)NC(=O)CN1C(=O)[C@@H](NC(=O)c2ccccc2)CN(C(=O)c2ccccc2)c2ccccc21 [Compound 605c, (3S)-3-[(3S)-2-Oxo-3-benzoylamino-5-benzoyl-2,3,4,5-tetrahydro-1H-1,5-benzodiazepin-1-acetylamino]-4-oxo-butyric acid]	4.5		
